From ChEMBL document CHEMBL2016536, “New triazole derivatives as antifungal agents: synthesis via click reaction, in vitro evaluation and molecular docking studies” (2012)
Converted amounts (≈) assume the structure as drawn.

Tests used:
Assay type in all cases: functional
Trichophyton rubrum = assay: Antifungal activity against Trichophyton rubrum by microbroth dilution method
Candida albicans [1] = assay: Antifungal activity against Candida albicans Y0109 after 24 hrs by microbroth dilution method; settings: Y0109, 24 h
Candida tropicalis = assay: Antifungal activity against Candida tropicalis by microbroth dilution method
Aspergillus fumigatus = assay: Antifungal activity against Aspergillus fumigatus by microbroth dilution method
Candida parapsilosis = assay: Antifungal activity against Candida parapsilosis by microbroth dilution method; settings: Lodderomyces parapsilosis
Cryptococcus neoformans = assay: Antifungal activity against Cryptococcus neoformans after 72 hrs by microbroth dilution method
Kluyveromyces marxianus [2] = assay: Antifungal activity against Candida kefyr by microbroth dilution method
Candida albicans [3] = assay: Antifungal activity against Candida albicans SC5314 after 24 hrs by microbroth dilution method; settings: SC5314, 24 h
Kluyveromyces marxianus [4] = assay: Ratio of MIC80 for fluconazole to compound for Candida kefyr by microbroth dilution method
Candida albicans [5] = assay: Ratio of MIC80 for fluconazole to compound for Candida albicans SC5314 after 24 hrs by microbroth dilution method

SMILES: OC(Cc1cn(Cc2ccc(Cl)c(Cl)c2)nn1)(Cn1cncn1)c1ccc(F)cc1F (configuration not stated)
- MIC80 (Trichophyton rubrum): 0.25 µg/mL (≈ 0.537 µM)
- MIC80 (Candida albicans [1]): 0.125 µg/mL (≈ 0.269 µM)
- MIC80 (Candida tropicalis): 0.125 µg/mL (≈ 0.269 µM)
- MIC80 (Aspergillus fumigatus): 32 µg/mL (≈ 68.8 µM)
- MIC80 (Candida parapsilosis): 0.125 µg/mL (≈ 0.269 µM)
- MIC80 (Cryptococcus neoformans): 1 µg/mL (≈ 2.15 µM)
- MIC80 (Kluyveromyces marxianus [2]): 0.25 µg/mL (≈ 0.537 µM)
- MIC80 (Candida albicans [3]): 0.25 µg/mL (≈ 0.537 µM)

SMILES: C[C@@H](c1ncncc1F)[C@](O)(Cn1cncn1)c1ccc(F)cc1F [VORICONAZOLE]
- MIC80 (Trichophyton rubrum): 0.0156 µg/mL (≈ 0.0447 µM)
- MIC80 (Candida albicans [1]): 0.0625 µg/mL (≈ 0.179 µM)
- MIC80 (Candida tropicalis): 0.0039 µg/mL (≈ 0.0112 µM)
- MIC80 (Aspergillus fumigatus): 0.0156 µg/mL (≈ 0.0447 µM)
- MIC80 (Candida parapsilosis): 0.0039 µg/mL (≈ 0.0112 µM)
- MIC80 (Cryptococcus neoformans): 0.0039 µg/mL (≈ 0.0112 µM)
- MIC80 (Kluyveromyces marxianus [2]): 0.0625 µg/mL (≈ 0.179 µM)
- MIC80 (Candida albicans [3]): 0.0625 µg/mL (≈ 0.179 µM)

SMILES: OC(Cc1cn(Cc2ccc(Cl)cc2)nn1)(Cn1cncn1)c1ccc(F)cc1F (configuration not stated)
- MIC80 (Trichophyton rubrum): 0.125 µg/mL (≈ 0.29 µM)
- MIC80 (Candida albicans [1]): 0.0625 µg/mL (≈ 0.145 µM)
- MIC80 (Candida tropicalis): 0.5 µg/mL (≈ 1.16 µM)
- MIC80 (Aspergillus fumigatus): 4 µg/mL (≈ 9.28 µM)
- MIC80 (Candida parapsilosis): 0.125 µg/mL (≈ 0.29 µM)
- MIC80 (Cryptococcus neoformans): 0.25 µg/mL (≈ 0.58 µM)
- MIC80 (Kluyveromyces marxianus [2]): 0.0625 µg/mL (≈ 0.145 µM)
- MIC80 (Candida albicans [3]): < 0.125 µg/mL

SMILES: OC(Cc1cn(Cc2cc(Cl)cc(Cl)c2)nn1)(Cn1cncn1)c1ccc(F)cc1F (configuration not stated)
- MIC80 (Trichophyton rubrum): < 0.125 µg/mL
- MIC80 (Candida albicans [1]): 0.125 µg/mL (≈ 0.269 µM)
- MIC80 (Candida tropicalis): 0.25 µg/mL (≈ 0.537 µM)
- MIC80 (Aspergillus fumigatus): 32 µg/mL (≈ 68.8 µM)
- MIC80 (Candida parapsilosis): 0.25 µg/mL (≈ 0.537 µM)
- MIC80 (Cryptococcus neoformans): 1 µg/mL (≈ 2.15 µM)
- MIC80 (Kluyveromyces marxianus [2]): 0.5 µg/mL (≈ 1.07 µM)
- MIC80 (Candida albicans [3]): 0.25 µg/mL (≈ 0.537 µM)

SMILES: OC(Cc1cn(Cc2cccc(Br)c2)nn1)(Cn1cncn1)c1ccc(F)cc1F (configuration not stated)
- MIC80 (Trichophyton rubrum): 0.25 µg/mL (≈ 0.526 µM)
- MIC80 (Candida albicans [1]): 0.0625 µg/mL (≈ 0.131 µM)
- MIC80 (Candida tropicalis): 0.25 µg/mL (≈ 0.526 µM)
- MIC80 (Aspergillus fumigatus): 8 µg/mL (≈ 16.8 µM)
- MIC80 (Candida parapsilosis): 0.125 µg/mL (≈ 0.263 µM)
- MIC80 (Cryptococcus neoformans): 0.25 µg/mL (≈ 0.526 µM)
- MIC80 (Kluyveromyces marxianus [2]): 0.125 µg/mL (≈ 0.263 µM)
- MIC80 (Candida albicans [3]): < 0.125 µg/mL

SMILES: OC(Cc1cn(Cc2ccccc2F)nn1)(Cn1cncn1)c1ccc(F)cc1F (configuration not stated)
- MIC80 (Trichophyton rubrum): 0.125 µg/mL (≈ 0.302 µM)
- MIC80 (Candida albicans [1]): 0.0625 µg/mL (≈ 0.151 µM)
- MIC80 (Candida tropicalis): 0.0625 µg/mL (≈ 0.151 µM)
- MIC80 (Aspergillus fumigatus): 16 µg/mL (≈ 38.6 µM)
- MIC80 (Candida parapsilosis): 0.125 µg/mL (≈ 0.302 µM)
- MIC80 (Cryptococcus neoformans): 0.125 µg/mL (≈ 0.302 µM)
- MIC80 (Kluyveromyces marxianus [2]): 0.0625 µg/mL (≈ 0.151 µM)
- MIC80 (Candida albicans [3]): 0.0625 µg/mL (≈ 0.151 µM)

SMILES: N#Cc1ccccc1Cn1cc(CC(O)(Cn2cncn2)c2ccc(F)cc2F)nn1 (configuration not stated)
- MIC80 (Trichophyton rubrum): 0.25 µg/mL (≈ 0.593 µM)
- MIC80 (Candida albicans [1]): 0.0625 µg/mL (≈ 0.148 µM)
- MIC80 (Candida tropicalis): 0.125 µg/mL (≈ 0.297 µM)
- MIC80 (Aspergillus fumigatus): 16 µg/mL (≈ 38 µM)
- MIC80 (Candida parapsilosis): 0.25 µg/mL (≈ 0.593 µM)
- MIC80 (Cryptococcus neoformans): 0.5 µg/mL (≈ 1.19 µM)
- MIC80 (Kluyveromyces marxianus [2]): < 0.125 µg/mL
- MIC80 (Candida albicans [3]): 0.125 µg/mL (≈ 0.297 µM)

SMILES: Cc1ccccc1Cn1cc(CC(O)(Cn2cncn2)c2ccc(F)cc2F)nn1 (configuration not stated)
- MIC80 (Trichophyton rubrum): 0.0625 µg/mL (≈ 0.152 µM)
- MIC80 (Candida albicans [1]): 0.0156 µg/mL (≈ 0.038 µM)
- MIC80 (Candida tropicalis): 0.125 µg/mL (≈ 0.305 µM)
- MIC80 (Aspergillus fumigatus): 2 µg/mL (≈ 4.87 µM)
- MIC80 (Candida parapsilosis): 0.0625 µg/mL (≈ 0.152 µM)
- MIC80 (Cryptococcus neoformans): 0.125 µg/mL (≈ 0.305 µM)
- MIC80 (Kluyveromyces marxianus [2]): 0.0039 µg/mL (≈ 0.0095 µM)
- MIC80 (Candida albicans [3]): 0.0625 µg/mL (≈ 0.152 µM)

SMILES: O=[N+]([O-])c1cccc(Cn2cc(CC(O)(Cn3cncn3)c3ccc(F)cc3F)nn2)c1 (configuration not stated)
- MIC80 (Trichophyton rubrum): 0.25 µg/mL (≈ 0.566 µM)
- MIC80 (Candida albicans [1]): 0.0625 µg/mL (≈ 0.142 µM)
- MIC80 (Candida tropicalis): 0.125 µg/mL (≈ 0.283 µM)
- MIC80 (Aspergillus fumigatus): 32 µg/mL (≈ 72.5 µM)
- MIC80 (Candida parapsilosis): < 0.25 µg/mL
- MIC80 (Cryptococcus neoformans): 0.5 µg/mL (≈ 1.13 µM)
- MIC80 (Kluyveromyces marxianus [2]): 0.0625 µg/mL (≈ 0.142 µM)
- MIC80 (Candida albicans [3]): < 0.125 µg/mL

SMILES: OC(Cc1cn(Cc2ccc(F)cc2)nn1)(Cn1cncn1)c1ccc(F)cc1F (configuration not stated)
- MIC80 (Trichophyton rubrum): 0.125 µg/mL (≈ 0.302 µM)
- MIC80 (Candida albicans [1]): 0.0625 µg/mL (≈ 0.151 µM)
- MIC80 (Candida tropicalis): 0.25 µg/mL (≈ 0.603 µM)
- MIC80 (Aspergillus fumigatus): 32 µg/mL (≈ 77.2 µM)
- MIC80 (Candida parapsilosis): 0.125 µg/mL (≈ 0.302 µM)
- MIC80 (Cryptococcus neoformans): 0.25 µg/mL (≈ 0.603 µM)
- MIC80 (Kluyveromyces marxianus [2]): 0.0625 µg/mL (≈ 0.151 µM)
- MIC80 (Candida albicans [3]): < 0.125 µg/mL

SMILES: CC(=O)N1CCN(c2ccc(OCC3COC(Cn4ccnc4)(c4ccc(Cl)cc4Cl)O3)cc2)CC1 (configuration not stated) [KETOCONAZOLE]
- MIC80 (Trichophyton rubrum): 0.0156 µg/mL (≈ 0.0294 µM)
- MIC80 (Candida albicans [1]): 0.0625 µg/mL (≈ 0.118 µM)
- MIC80 (Candida tropicalis): 0.0039 µg/mL (≈ 0.00734 µM)
- MIC80 (Aspergillus fumigatus): 0.0156 µg/mL (≈ 0.0294 µM)
- MIC80 (Candida parapsilosis): 0.0039 µg/mL (≈ 0.00734 µM)
- MIC80 (Cryptococcus neoformans): 0.0156 µg/mL (≈ 0.0294 µM)
- MIC80 (Kluyveromyces marxianus [2]): 0.0625 µg/mL (≈ 0.118 µM)
- MIC80 (Candida albicans [3]): 0.0625 µg/mL (≈ 0.118 µM)

SMILES: Cc1cccc(Cn2cc(CC(O)(Cn3cncn3)c3ccc(F)cc3F)nn2)c1 (configuration not stated)
- MIC80 (Trichophyton rubrum): 0.0625 µg/mL (≈ 0.152 µM)
- MIC80 (Candida albicans [1]): 0.0156 µg/mL (≈ 0.038 µM)
- MIC80 (Candida tropicalis): 0.125 µg/mL (≈ 0.305 µM)
- MIC80 (Aspergillus fumigatus): 4 µg/mL (≈ 9.75 µM)
- MIC80 (Candida parapsilosis): 0.0625 µg/mL (≈ 0.152 µM)
- MIC80 (Cryptococcus neoformans): 0.125 µg/mL (≈ 0.305 µM)
- MIC80 (Kluyveromyces marxianus [2]): 0.0156 µg/mL (≈ 0.038 µM)
- MIC80 (Candida albicans [3]): 0.0625 µg/mL (≈ 0.152 µM)

SMILES: Cc1ccc(Cn2cc(CC(O)(Cn3cncn3)c3ccc(F)cc3F)nn2)cc1 (configuration not stated)
- MIC80 (Trichophyton rubrum): 0.0625 µg/mL (≈ 0.152 µM)
- MIC80 (Candida albicans [1]): 0.0039 µg/mL (≈ 0.0095 µM)
- MIC80 (Candida tropicalis): 0.125 µg/mL (≈ 0.305 µM)
- MIC80 (Aspergillus fumigatus): 2 µg/mL (≈ 4.87 µM)
- MIC80 (Candida parapsilosis): 0.0625 µg/mL (≈ 0.152 µM)
- Ratio (Kluyveromyces marxianus [4]): 256
- MIC80 (Cryptococcus neoformans): 0.125 µg/mL (≈ 0.305 µM)
- MIC80 (Kluyveromyces marxianus [2]): 0.0156 µg/mL (≈ 0.038 µM)
- Ratio (Candida albicans [5]): 128
- MIC80 (Candida albicans [3]): 0.0156 µg/mL (≈ 0.038 µM)

SMILES: COc1ccc(Cn2cc(CC(O)(Cn3cncn3)c3ccc(F)cc3F)nn2)cc1OC (configuration not stated)
- MIC80 (Trichophyton rubrum): 0.0625 µg/mL (≈ 0.137 µM)
- MIC80 (Candida albicans [1]): 0.0156 µg/mL (≈ 0.0342 µM)
- MIC80 (Candida tropicalis): 0.125 µg/mL (≈ 0.274 µM)
- MIC80 (Aspergillus fumigatus): 2 µg/mL (≈ 4.38 µM)
- MIC80 (Candida parapsilosis): 0.0625 µg/mL (≈ 0.137 µM)
- MIC80 (Cryptococcus neoformans): 0.0625 µg/mL (≈ 0.137 µM)
- MIC80 (Kluyveromyces marxianus [2]): 0.0625 µg/mL (≈ 0.137 µM)
- MIC80 (Candida albicans [3]): 0.0625 µg/mL (≈ 0.137 µM)

SMILES: CCC(C)n1ncn(-c2ccc(N3CCN(c4ccc(OCC5COC(Cn6cncn6)(c6ccc(Cl)cc6Cl)O5)cc4)CC3)cc2)c1=O (configuration not stated) [ITRACONAZOLE]
- MIC80 (Trichophyton rubrum): 0.0625 µg/mL (≈ 0.0886 µM)
- MIC80 (Candida albicans [1]): 0.0625 µg/mL (≈ 0.0886 µM)
- MIC80 (Candida tropicalis): 0.0625 µg/mL (≈ 0.0886 µM)
- MIC80 (Aspergillus fumigatus): 0.0625 µg/mL (≈ 0.0886 µM)
- MIC80 (Candida parapsilosis): 0.0625 µg/mL (≈ 0.0886 µM)
- MIC80 (Cryptococcus neoformans): 0.0625 µg/mL (≈ 0.0886 µM)
- MIC80 (Kluyveromyces marxianus [2]): 0.125 µg/mL (≈ 0.177 µM)
- MIC80 (Candida albicans [3]): 0.0625 µg/mL (≈ 0.0886 µM)
